Assay results from US6395746B1, “Methods of treating ophthalmic, otic and nasal infections and attendant inflammation” (Alcon Manufacturing, Ltd., priority 1998, dated 2002).
In brackets after ≈: the same amount, converted by molar mass.

Key:
Test in all cases: Minimum inhibitory concentration (MIC90)
Type in all cases: cell-based
[1] = test system: H. influenzae/βlactamase negative
Excerpt: (§1) The concentrations of the antibiotics of formula (I) in the compositions of the present invention will vary depending on the intended use of the compositions (e.g., treatment of existing infections or prevention of post-surgical infections), and the relative antimicrobial activity of the specific antibiotic selected. The antimicrobial activity of antibiotics is generally expressed as the minimum concentration required to inhibit the growth of a specified pathogen. This concentration is also referred to as the “minimum inhibitory concentration” or “MIC”. The term “MIC90” refers to the minimum concentration of antibiotic required to inhibit the growth of ninety percent (90%) of the strains of a species. The concentration of an antibiotic required to totally kill a specified bacteria is referred to as the “minimum bactericidal concentration” or “MBC”. The minimum inhibitory concentration of Trovafloxacin for several bacteria commonly associated with ophthalmic, otic and nasal infections are provided in the following table: […]

[2] = test system: H. influenzae/β-lactamase positive
Excerpt: as §1

[3] = test system: S. aureus/methicillin sensitive
Excerpt: as §1

[4] = test system: S. aureus/methicillin resistant
Excerpt: as §1

P. aeruginosa = test system: P. aeruginosa
Excerpt: as §1

[5] = test system: S. aureus/quinolone resistant
Excerpt: as §1

[6] = test system: S. pneumoniae/penicillin resistant
Excerpt: as §1

[7] = test system: S. pneumoniae/penicillin sensitive
Excerpt: as §1

[8] = test system: S. epidermidis/methicillin sensitive
Excerpt: as §1

[9] = test system: S. epidermidis/methicillin resistant
Excerpt: as §1

Question: Which MIC90 [1] does the source give for N[C@@H]1[C@H]2CN(c3nc4c(cc3F)c(=O)c(C(=O)O)cn4-c3ccc(F)cc3F)C[C@@H]12 [Trovafloxacin] here?
Answer: 0.03 µg/mL (≈ 0.0721 µM)

Question: What about the MIC90 [2] of the same compound?
Answer: 0.03 µg/mL (≈ 0.0721 µM)

Question: What about the MIC90 [3] of the same compound?
Answer: 0.03 µg/mL (≈ 0.0721 µM)

Question: And the MIC90 [4]?
Answer: 2.0 µg/mL (≈ 4.8 µM)

Question: And the MIC90 (P. aeruginosa)?
Answer: 2.0 µg/mL (≈ 4.8 µM)

Question: What about the MIC90 [5] of the same compound?
Answer: 4.0 µg/mL (≈ 9.61 µM)

Question: What about the MIC90 [6] of the same compound?
Answer: 0.25 µg/mL (≈ 0.6 µM)

Question: What about the MIC90 [7] of the same compound?
Answer: 0.25 µg/mL (≈ 0.6 µM)

Question: And the MIC90 [8]?
Answer: 0.06 µg/mL (≈ 0.144 µM)

Question: What about the MIC90 [9] of the same compound?
Answer: 4.0 µg/mL (≈ 9.61 µM)
